This passage reports DC50 and remaining activity results from article PMC6277434, “Discovery of a potent HMG-CoA reductase degrader that eliminates statin-induced reductase accumulation and lowers cholesterol” (Nature Communications, 2018).

For assay [1], the target named is T1, HMGCR (TM1-8)-GFP (Cricetulus griseus, UniProt P00347).
T1 sequence (P00347 1-346): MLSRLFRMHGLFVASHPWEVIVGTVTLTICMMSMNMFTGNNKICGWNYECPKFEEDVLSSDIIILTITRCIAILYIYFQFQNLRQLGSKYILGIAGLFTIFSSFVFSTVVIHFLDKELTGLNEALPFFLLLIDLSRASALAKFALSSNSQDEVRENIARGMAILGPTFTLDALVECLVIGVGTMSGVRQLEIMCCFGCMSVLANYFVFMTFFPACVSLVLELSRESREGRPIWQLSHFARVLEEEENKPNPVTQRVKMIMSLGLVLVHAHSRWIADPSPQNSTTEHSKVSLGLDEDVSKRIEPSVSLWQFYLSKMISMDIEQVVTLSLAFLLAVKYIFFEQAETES
Procedure: (§1) We thus generated a cell line stably expressing the transmembrane domain of HMGCR fused with green fluorescent protein (GFP) as a reporter (HMGCR (TM1-8)-GFP) (Fig. 2a).
(§2) CHO-7 cells were transfected with pCMV-HMGCR (TM1-8)-GFP using FuGENE HD. Twenty-four hours, cells were switched to medium B supplemented with 5% FBS and selected in the presence of 1 mg ml^−1 G418 for 2 weeks. Surviving colonies were isolated and confirmed for GFP expression by immunoblotting and immunofluorescence. The resulting CHO-7/HMGCR (TM1-8)-GFP stable cell line (CHG) was maintained in medium B supplemented with 5% FBS and 200 μg ml^−1 G418.
(§3) CHG cells were treated as described in figure legends. Briefly, cells were seeded at day 0 in 96-well black plate (3904, Corning) at a density of 1.5 × 10^4 cells per well, in medium B containing with 5% LPDS. Day 1, corresponding compounds were added as figure legends described in medium B with 5% LPDS, 1 μM lovastatin, 50 μM sodium mevalonate for 16 h. Then cells were fixed with 4% paraformaldehyde for 20 min, washed with PBS for three times, and stained with 2 μg ml^−1 Hoechst 33342.
(§4) The fluorescent images (GFP and Hoechst channel) were captured using an Operatta High-Content Imaging System (PerkinElmer) with a ×20 objective. The cytoplasmic GFP fluorescence was measured with the Harmony Software (PerkinElmer). Five random selected filed per well were captured, and about 3000 cells were used to determine the mean cytoplasmic GFP fluorescent intensity per cell after subtracting background GFP intensity. The average GFP intensity of DMSO-treated cells was defined as 100.

Assay [2] has as its target T1, HMGCR (TM1-8)-GFP. Nature of the assay: HMGCR (TM1-8)-GFP fluorescent assay (high-content imaging) in CHG cells. Conditions: read-out: Mean (HMGCR (TM1-8)-GFP signal relative to 0 μM = 100).
Procedure: as §1, §2, §3, §4

In assay [1], `C[C@H](CCC(C)(C)O)C1CCC2C3C(CC[C@@]21C)[C@@]1(C)CC[C@H](O)C(C)(C)C1=C[C@@H]3O` (stereo partly shown) [Compound 56] returned a DC50 of 52.1 µM. Also, in assay [2], the remaining activity at 0.156 µM was determined as 88.3%, the remaining activity at 0.313 µM was 94.2%, the remaining activity at 0.625 µM worked out at 92.2% and the remaining activity at 1.25 µM amounted to 79.4%. In assay [2], the remaining activity at 2.5 µM worked out at 78.7%, the remaining activity at 5 µM worked out at 72.2% and the remaining activity at 10 µM worked out at 69.4%.
Compound `CCC(O)(CC)CC[C@@H](C)C1CCC2C3C(CC[C@@]21C)[C@@]1(C)CC[C@H](O)C(C)(C)C1=C[C@@H]3O` (stereo partly shown) [Compound 57] displayed a DC50 in assay [1] of 1.75 µM. In assay [2], the remaining activity at 0.156 µM is 96.7%, the remaining activity at 0.313 µM was 90.2%, the remaining activity at 0.625 µM is 75.6% and the remaining activity at 1.25 µM came out at 53.1%. In assay [2], the remaining activity at 2.5 µM was found to be 36.2%, the remaining activity at 5 µM amounted to 26% and the remaining activity at 10 µM amounted to 23.7%.
Regarding `C=CCC(O)(CC=C)CC[C@@H](C)C1CCC2C3C(CC[C@@]21C)[C@@]1(C)CC[C@H](O)C(C)(C)C1=C[C@@H]3O` (stereo partly shown) [Compound 58], the DC50 in assay [1] stood at 4.5 µM. Besides, in assay [2], the remaining activity at 0.156 µM was 106%, the remaining activity at 0.313 µM was determined as 110%, the remaining activity at 0.625 µM amounted to 104% and the remaining activity at 1.25 µM was found to be 92.1%. In assay [2], the remaining activity at 2.5 µM came to 68.2%, the remaining activity at 5 µM came to 43.8% and the remaining activity at 10 µM was determined as 25.3%.
In assay [1], `CC(O)CC[C@@H](C)C1CCC2C3C(CC[C@@]21C)[C@@]1(C)CC[C@H](O)C(C)(C)C1=C[C@@H]3O` (stereo partly shown) [Compound 63] registered a DC50 of 2.96 µM. In assay [2], the remaining activity at 0.156 µM was determined as 100%, the remaining activity at 0.313 µM amounted to 97.9%, the remaining activity at 0.625 µM stood at 86.9% and the remaining activity at 1.25 µM stood at 73.2%. Further, in assay [2], the remaining activity at 2.5 µM is 50.1%, the remaining activity at 5 µM was 37.4% and the remaining activity at 10 µM came out at 21%.
In assay [1], `CCC(O)CC[C@@H](C)C1CCC2C3C(CC[C@@]21C)[C@@]1(C)CC[C@H](O)C(C)(C)C1=C[C@@H]3O` (stereo partly shown) [Compound 64] showed a DC50 of 3.06 µM. Besides, in assay [2], the remaining activity at 0.156 µM is 100%, the remaining activity at 0.313 µM is 104%, the remaining activity at 0.625 µM came out at 88.2% and the remaining activity at 1.25 µM is 68.2%. For the same compound, in assay [2], the remaining activity at 2.5 µM was 52.2%, the remaining activity at 5 µM came out at 35.6% and the remaining activity at 10 µM came to 27%.
In the case of `C=CCC(O)CC[C@@H](C)C1CCC2C3C(CC[C@@]21C)[C@@]1(C)CC[C@H](O)C(C)(C)C1=C[C@@H]3O` (stereo partly shown) [Compound 65], in assay [1], the DC50 amounted to 2.33 µM. In assay [2], the remaining activity at 0.156 µM worked out at 108%, the remaining activity at 0.313 µM stood at 103%, the remaining activity at 0.625 µM was determined as 93.6% and the remaining activity at 1.25 µM stood at 78.4%. Besides, in assay [2], the remaining activity at 2.5 µM came to 40.4%, the remaining activity at 5 µM was determined as 22.1% and the remaining activity at 10 µM was found to be 14%.
As to `COC(=O)CCC[C@@H](C)C1CCC2C3C(CC[C@@]21C)[C@@]1(C)CC[C@H](O)C(C)(C)C1=C[C@@H]3O` (stereo partly shown) [Compound 72], the DC50 in assay [1] turned out to be 6.77 µM. For the same compound, in assay [2], the remaining activity at 0.156 µM was found to be 109%, the remaining activity at 0.313 µM came to 104%, the remaining activity at 0.625 µM is 96.6% and the remaining activity at 1.25 µM came to 89.7%. Besides, in assay [2], the remaining activity at 2.5 µM was found to be 77.5%, the remaining activity at 5 µM stood at 56.3% and the remaining activity at 10 µM is 40.9%.
Consider `C[C@H](CCCC(=O)O)C1CCC2C3C(CC[C@@]21C)[C@@]1(C)CC[C@H](O)C(C)(C)C1=C[C@@H]3O` (stereo partly shown) [Compound 73], for which the DC50 in assay [1] came to 60.6 µM. In addition, in assay [2], the remaining activity at 0.156 µM came out at 97%, the remaining activity at 0.313 µM stood at 97.9%, the remaining activity at 0.625 µM worked out at 97.7% and the remaining activity at 1.25 µM is 98.1%. In assay [2], the remaining activity at 2.5 µM is 92.6%, the remaining activity at 5 µM is 87.2% and the remaining activity at 10 µM was found to be 81.4%.
